Reference: patent US20250059187A1, “COVALENTLY BINDING INHIBITORS OF G12S, G12D AND/OR G12E MUTANTS OF K-RAS GTPASE” (The Regents of the University of California, priority 2021, published 2025)
“Also recorded” adds a separate entry of the source. Where two headings read alike, the source gives them in different places. Blank lines part the entries; values can stand above or below the molecule they belong to.

How the values were obtained:
[1] = target: T1, interaction between Raf-RBD and K-Ras(G12D) (Homo sapiens, UniProt P01116, G12D); assay: Time-resolved fluorescence energy transfer assay, Raf-RBD and K-Ras(G12D); format: biochemical; details: dose-dependent
T1 construct: human K-Ras (G12D, aa 1-169); 6xHis tag + TEV cleavage site (N); made in house; host or cells: E. coli BL21(DE3) for K-Ras

wild type K-Ras [2] = target: T2, wild type K-Ras (Homo sapiens, UniProt P01116); assay: Covalent modification of test protein after incubation with compound; format: binding; details: 24-h incubation with 100 μM compound at 23° C. at pH 7.5
T2 construct: human K-Ras (wildtype, aa 1-169); 6xHis tag + TEV cleavage site (N, cleaved yes); made in house; host or cells: E. coli BL21(DE3)

K-Ras G12D [3] = target: T3, K-Ras G12D (Homo sapiens, UniProt P01116, G12D); assay: as above; format: binding; details: 24-h incubation with 100 μM compound at 23° C. at pH 7.5
T3 construct: human K-Ras (G12D, aa 1-169); 6xHis tag + TEV cleavage site (N, cleaved yes); made in house; host or cells: E. coli BL21(DE3)

K-Ras G12E = target: T4, K-Ras G12E (Homo sapiens, UniProt P01116, G12E); assay: as above; format: binding; details: 24-h incubation with 100 μM compound at 23° C. at pH 7.5
T4 construct: human K-Ras (G12E, aa 1-169); 6xHis tag + TEV cleavage site (N, cleaved yes); made in house; host or cells: E. coli BL21(DE3)

wild type K-Ras [4] = target: T2, wild type K-Ras; assay: Covalent modification of recombinant wild-type K-Ras by whole-protein mass spectrometry; format: binding; details: 23° C.
Method: (§1) Test compounds were prepared as 100× stock solutions in DMSO. K-Ras proteins were diluted with SEC Buffer (20 mM HEPES 7.5, 150 mM NaCl, 1 mM MgCl2) to 400 nM or 1 μM. In a typical reaction, 0.5 μL 100× compound stock was mixed with 50 μL diluted K-Ras protein, and the resulting mixture was incubated for the desired amount of time. The extent of modification was assessed by electrospray mass spectrometry using a Waters Xevo G2-XS system equipped with an Acquity UPLC BEH C4 1.7 μm column. The mobile phase was a linear gradient of 5-95% acetonitrile/water+0.05% formic acid. For kinetic measurements, a 2× compound solution was first prepared in SEC Buffer, which was then mixed with 400 nM K-Ras(G12S) protein at 1:1 (v/v) ratio. Injection time stamps were used to calculate elapsed time.
as §1, with “K-Ras(G12D)” for “K-Ras(G12S)”

K-Ras(G12S)·GDP = target: T5, K-Ras(G12S)·GDP (Homo sapiens, UniProt P01116, G12S); assay: Differential scanning fluorimetry of K-Ras(G12S)·GDP and its adduct; format: binding
T5 construct: human K-Ras (G12S, aa 1-169); 6xHis tag + TEV cleavage site (N, cleaved yes); made in house; host or cells: E. coli BL21(DE3)
Method: The protein of interest was diluted with SEC Buffer [20 mM HEPES 7.5, 150 mM NaCl, 1 mM MgCl2] to 8 μM. This solution was dispensed into wells of a white 96-well PCR plate in triplicate (25 μL/well). Fluorescence was measured at 0.5-° C. temperature intervals every 30 s from 25° C. to 95° C. on a Bio-Rad CFX96 qPCR system using the FRET setting. Each data set was normalized to the highest fluorescence and the normalized fluorescence reading was plotted against temperature in GraphPad Prism 8.0. Tm values were determined as the temperature(s) corresponding to the maximum(ma) of the first derivative of the curve.

K-Ras(G12S) [5] = target: T6, K-Ras(G12S) (Homo sapiens, UniProt P01116, G12S); assay: Covalent modification of recombinant K-Ras(G12S) by whole-protein mass spectrometry; format: binding; parameters: human K-Ras (G12S, aa 1-169); 6xHis tag + TEV cleavage site (N, cleaved yes); made in house; host or cells: E. coli BL21(DE3); details: for extent of modification of K-Ras(G12S)·GDP: 10 μM compound, 4 μM protein
Method: as §1, with “The mobile phase was a linear gradient of 5-95% acetonitrile/water+0.05% formic acid.” left out
as §1, with “The mobile phase was a linear gradient of 5-95% acetonitrile/water+0.05% formic acid.” left out, “K-Ras(G12D)” for “K-Ras(G12S)”

K-Ras(G12S) [6] = target: T6, K-Ras(G12S); assay: Sos- or EDTA-mediated nucleotide exchange assay (BODIPY-GDP); format: biochemical; parameters: human K-Ras (G12S, aa 1-169); 6xHis tag + TEV cleavage site (N, cleaved yes); made in house; host or cells: E. coli BL21(DE3) for K-Ras; details: K-Ras(G12S) adduct
Method: This assay was performed as previously reported (2-5) with slight modifications. BODIPY-GDP-loaded K-Ras proteins were prepared freshly as follows. To a 10 μM solution of K-Ras(wildtype)·GDP, K-Ras(G12S)·GDP, or K-Ras(G12S)·GDP·1′ in SEC Buffer (1 mL) was added sequentially BODIPY-GDP (5 mM, 40 μL, Thermo Fisher, final concentration 200 μM) and Na-EDTA pH 8.0 (0.5 M, 5 μL, final concentration 2.5 mM). The mixture was incubated at 23° C. for 1 h, and a solution of MgCl2 (1.0 M, 20 μL, […]) was added to the reaction mixture. The protein solution was run through a PD-10 column to remove the excess nucleotide following the manufacturer's protocol. Briefly, sample (˜1.0 mL) and excess buffer (1.5 mL) were loaded onto the column (equilibrated with NucEx Buffer), and desalted protein was eluted with NucEx Buffer (3.5 mL). Protein concentration was measured with Bradford assay and adjusted to 1.25 μM with NucEx Buffer. 12 μL of this solution (triplicate for each condition) was added to wells of a black 384-well low-volume assay plate (Corning 4514). […] The plate was immediately placed in a TECAN Spark 20M plate reader, and fluorescence for BODIPY (excitation 488 nm, emission 520 nm) was read every 30 s over 1 h. Fluorescence intensity was normalized to values at time 0 and plotted again time. […]

K-Ras G12D [7] = target: T3, K-Ras G12D; assay: Covalent modification of recombinant K-Ras(G12D) by whole-protein mass spectrometry; format: binding
Method: as §1, with “K-Ras(G12D)” for “K-Ras(G12S)”

BaF3/K-Ras(G12D) cells = assay: Growth inhibition of BaF3/K-Ras(G12D) cells; format: cell-based, murine; details: Mus musculus
Method: (§2) Cells were seeded into 96-well white flat bottom plates (1,000 cells/well) (Corning) and incubated overnight. Cells were treated with the indicated compounds in a nine-point threefold dilution series (100 μL final volume) and incubated for 72 h. Cell viability was assessed using a commercial CellTiter-Glo (CTG) luminescence-based assay (Promega). Briefly, the 96-well plates were equilibrated to room temperature before the addition of diluted CTG reagent […] (1:4 CTG reagent:PBS). Plates were placed on an orbital shaker for 30 min before recording luminescence using a Spark 20M (Tecan) plate reader.

[8] = Stability of substituted β-lactones in PBS 7.4 at 23° C.; format: physicochemical; details: after 24 h, pH 7.4
[9] = system: parental Ba/F3 cells (with IL-3); assay: Cell viability assay (CellTiter-Glo), parental Ba/F3 cells; format: cell-based, murine; details: 10 μM
Method: as §2, with “Cells were treated with the indicated compounds in a nine-point threefold dilution series (100 μL final volume) and incubated for 72 h.” left out

Structure (SMILES): C#Cc1cccc2cccc(-c3ncc4c(N5C[C@H]6CC[C@@H](C5)N6C(=O)C5CC(=O)O5)nc(OCC56CCCN5CCC6)nc4c3F)c12 (mixture of isomers) [(RS)-1]
- interaction between Raf-RBD and K-Ras(G12D) [1]: disrupted Ras-RafRBD binding
- % covalent modification of wild type K-Ras (wild type K-Ras [2]): 0%
- % covalent modification of K-Ras G12D (K-Ras G12D [3]): 100%
- % covalent modification of K-Ras G12E (K-Ras G12E): 6.3%

- % covalent modification of wild type K-Ras (wild type K-Ras [4]; 24-h incubation, 100 μM compound, pH 7.5): 7.0%
- change of melting temperature of K-Ras(G12S)·GDP on adduct formation (K-Ras(G12S)·GDP): +17.2 °C
- melting temperature (Tm) of the K-Ras(G12S)·GDP adduct (K-Ras(G12S)·GDP; unmodified K-Ras(G12S)·GDP 53.7° C.): 70.9 °C
- % covalent modification of wild type K-Ras (wild type K-Ras [2]): 7.0%
- % covalent modification of K-Ras G12D (K-Ras G12D [3]): 7.0%
- % covalent modification of K-Ras G12E (K-Ras G12E): 12.0%
- extent of modification of K-Ras(G12S)·GDP (K-Ras(G12S) [5]; 1 hour, 23° C.): 64%
- extent of modification of K-Ras(G12S)·GDP (K-Ras(G12S) [5]; 12 h): 100%
- % covalent modification of K-Ras G12S (K-Ras(G12S) [5]; 24-h incubation, 100 μM compound, 23° C., pH 7.5): 100%
- Sos-catalyzed nucleotide exchange (K-Ras(G12S) [6]; Sos): blocked Sos-catalyzed exchange
Structure (SMILES): CN1CCC[C@H]1COc1nc2c(c(N3CCC4C(=O)OC4C3)n1)CCN(c1cccc3cccc(Cl)c13)C2 (stereo partly shown) [1′]
- covalent adducts with wild-type K-Ras protein (wild type K-Ras [4]; 10 μM compound, 4 μM protein): neither of these compounds formed covalent adducts
- reaction with GppNHp-loaded K-Ras(G12S) (K-Ras(G12S) [5]; GppNHp-loaded protein, identical conditions): no reaction was observed; also recorded: does not react
- EDTA promoted nucleotide exchange (K-Ras(G12S) [6]; EDTA): decreased the rate of EDTA promoted exchange

Structure (SMILES): CC(C)[C@H]1C(=O)O[C@@H]1C(=O)N1[C@@H]2CC[C@H]1CN(c1nc(OCC34CCCN3CCC4)nc3c(F)c(-c4cccc5cccc(Cl)c45)ncc13)C2 [(2S, 3R)-4]
- reactivity with K-Ras(G12D)·GDP (K-Ras G12D [7]): did not show any detectable reactivity
- IC50 (BaF3/K-Ras(G12D) cells; 95% CI: 3.1-6.3 μM, read-out: IC50, BaF3/K-Ras(G12D) proliferation): 4400 nM

Structure (SMILES): CC(C)[C@@H]1C(=O)O[C@H]1C(=O)N1[C@@H]2CC[C@H]1CN(c1nc(OCC34CCCN3CCC4)nc3c(F)c(-c4cccc5cccc(Cl)c45)ncc13)C2 [Compound 4]
- material remaining intact (hydrolysis) [8]: > 90%
- IC50 (BaF3/K-Ras(G12D) cells; read-out: IC50, growth of BaF3/K-Ras(G12D) cells): 71 nM

Structure (SMILES): C=C(F)C(=O)N1CCN(c2nc(OC[C@@H]3CCCN3C)nc3c2CCN(c2cccc4cccc(Cl)c24)C3)C[C@@H]1CC#N [adagrasib, reference compound]
- cell death of parental Ba/F3 cells [9]: complete cell death
